Experimental data from patent US20250262167A1, “COMPOUNDS, TARGETS AND PATHWAYS FOR MACROPHAGE MODULATION” (Massachusetts Institute of Technology, priority 2020, published 2025).

Key:
[1] = tested on: ImKCs (immortalized line of mouse Kupffer cells); experiment: Seahorse ECAR/OCR (glycolysis, OxPhos) in ImKCs; type: cell-based
Method: Shown are representative data of three independent experiments. […] Data are presented as the mean±sd (n=4).
FIGS. 21A-21I show DPI stimulates glycolysis through GPR3 and β-arrestin2. FIGS. 21A-21B show DPI-stimulated glycolysis is independent of the NOX activity. […] The mean fluorescence intensity (MFI) of 2-NBDG in cells was measured by flow cytometry and normalized to DMSO controls of wildtype BMDMs. Data are presented as the mean±sd (n=3). […] ImKCs were transfected with siRNA specific for Gpr3 or a scramble siRNA as control. […] Data are presented as the mean±sd (n=4). […] Data are presented as the mean±sd (n=12). […] Abbr2^−/− ImKC were constructed by CRISPR-Cas9-mediated gene editing. […] Data are presented as the mean±sd (n=4). […] ImKCs were transfected with Abbr2-GFP fusion gene and stimulated with DMSO, DPI (50 nM), or S1P (3 mM). The GFP signal was captured with a TIRF microscope at indicated time points. Shown are representative data of GFP signal at 0 min and 10 min, and merged signal from three independent experiments.
Specific parameters for glycolytic capacity and glycolytic reserve were calculated and summarized based on two independent experiments. […] The GFP signal was captured with a TIRF microscope at indicated time points. Shown are representative data of GFP signal at 0 min and 10 min, and the merged signal from three independent experiments.
OCR and ECAR were measured in isolated tissues or cultured ImKCs using the Seahorse XFe Extracellular Flux Analyzer (Agilent). For tissue respiration assays, 1.0 mg adipose tissue was dissected from inguinal WAT depots by using a surgical biopsy instrument (Integra Miltex Standard Biopsy Punches, Thermo Fisher) and placed into XF96 Islet Capture Microplates and pre-incubated with XF assay medium with pH value at 7.4. XF assay medium supplemented with 1 mM sodium pyruvate, 2 mM GlutaMax™-I, and 25 mM glucose. Isolated MDMs or Kupffer cells were subjected to a mitochondrial stress test by adding oligomycin (2 μM) followed by carbonyl cyanide 4-(trifluoromethoxy), phenylhydrazone (FCCP, 5 μM), and antimycin (1 μM). For glucose stress assay and ECAR measurement, XF assay medium was supplemented only with GlutaMax™-I. Tissue or cells were subjected to a glucose stress test by adding highly concentrated glucose (for tissue, 25 mM; for cells, 10 mM), followed by adding oligomycin (5 μM), FCCP (5 μM), and 2-DG (50 mM). Cells were seeded in culture dishes, and the medium was changed after 6 hours with serum-free DMEM. Cells were incubated for 12-16 hours, and the culture medium was then collected for measurement of glucose and lactate concentrations. Glucose levels were determined using a glucose (GO) assay kit (Sigma). Glucose consumption was the difference in glucose concentration when compared with DMEM. Lactate levels were determined using a lactate assay kit (Eton Bioscience).
DPI is an agonist of GPR3 and an inhibitor of […] oxidase (NOX). We first determined the requirement of NOX in DPI-stimulated glycolysis.
To determine the requirement of GPR3, we knocked down GPR3 by siRNA (siGpr3) in ImKCs.
β-arrestin2, encoded by Arrb2, has been reported to bind to GPR3 and is required for GPR3 signaling. To investigate the requirement of 0-arrestin2 in DPI-stimulated glycolysis, we constructed Arrb2^−/− ImKCs using CRISPR-Cas9 mediated gene editing (FIG. 28F).

B16F10 melanoma cells = experiment: Tumor growth inhibition by treated macrophages or their conditioned medium; type: cell-based, mouse
Method: DEGs were identified by edgeR at P<0.05 with at least 2 fold-change. Data for genes that were not classified as differentially expressed are plotted in black. […] Mouse BMMs were cultured in normal medium with or without 2.5 μM thiostrepton for 24 hrs (group 1), or cultured in B16F10 tumor cell conditioned medium (CM) with or without 2.5 μM thiostrepton for 24 hrs (group 2), or cultured with B16F10 tumor cell CM for 24 hrs first and then treated with 2.5 μM thiostrepton for another 24 hrs (group 3). The transcript levels of the indicated genes were quantified by qPCR. Data were summarized from two independent experiments. […] Mouse BMMs were treated with thiostrepton for 24 hrs. […] The number of tumor cells were quantified by flow cytometry after subtracting macrophages from total number of cells. […]
Conditioned medium (CM) was collected and filtered. […] The number of tumor cells were quantified by flow cytometry. […] Mouse BMMs (FIG. 14B) or hMDM (FIG. 14C) were treated with […] thiostrepton for 24 hrs, then co-cultured with equal number of eFluro670 and anti-CD20 labelled human B-cell lymphoma cells for 2 hrs, and analyzed by flow cytometry. […]
Mouse bone marrow-derived macrophages (mBMM) were prepared as described previously^54. […] Expression of Arg, Fizz1 and Vegfa were quantified by qPCR to assess the development of TAMs. […]

[2] = 5, 50 and 500 nM, short-term, dose-dependent

SMILES	ECAR [1, 2]	OCR [1, 2]	glycolytic capacity and reserve ([1]; 50 and 500 nM, 24 hrs)	glycolysis and glycolytic capacity ([1]; Arrb2−/− ImKCs, 50 nM)	glycolysis, glycolytic capacity and glucose consumption ([1]; siGpr3 ImKCs, 50 nM)	glycolysis and glycolytic capacity ([1]; siGpr3 ImKCs, 500 nM, lower than in scramble siRNA ImKCs)	melanoma cells in conditioned medium from treated macrophages (B16F10 melanoma cells; 12 hrs, vs untreated or heat-inactivated conditioned medium)	melanoma cells after co-culture with treated macrophages (B16F10 melanoma cells; BMMs treated 24 hrs, co-culture 12 hrs, vs untreated macrophages, dose-dependent)
c1ccc2c(c1)[I+]c1ccccc1-2 [Diphenyleneiodonium chloride]	immediate increase	concomitant decrease	significant increase	did not stimulate any increase	did not stimulate any increase	significant increase	–	–
C=C(NC(=O)C(=C)NC(=O)c1csc(C2=N[C@@H]3c4csc(n4)[C@H]4NC(=O)c5csc(n5)[C@H]([C@](C)(O)[C@@H](C)O)NC(=O)[C@H]5CSC(=N5)/C(=C/C)NC(=O)[C@H]([C@@H](C)O)NC(=O)c5csc(n5)[C@]3(CC2)NC(=O)[C@H](C)NC(=O)C(=C)NC(=O)[C@H](C)NC(=O)[C@H]([C@@H](C)CC)N[C@@H]2C=Cc3c([C@H](C)O)cc(nc3[C@H]2O)C(=O)O[C@@H]4C)n1)C(N)=O [Thiostrepton]	–	–	–	–	–	–	more melanoma cells were lost	Significantly more melanoma cells were lost
